According to PubChem BioAssay (NCI):
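Five compound concentrations were applied to cells in 96-well plates for 48 hours; endpoints were derived by simple linear interpolation of the resulting dose-response curve. GI50 is the concentration that inhibits growth by half. The concentration for full growth arrest is given as TGI.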

Assays:
Assay in all cases: growth of human tumour cells (NCI), 48 h
A498 renal = test system: A498 renal
HS 578T breast = test system: HS 578T breast
NCI/ADR-RES ovarian = test system: NCI/ADR-RES ovarian
T-47D breast = test system: T-47D breast
TK-10 renal = test system: TK-10 renal
786-0 renal = test system: 786-0 renal
A549 NSCLC = test system: A549 NSCLC
ACHN renal = test system: ACHN renal
CAKI-1 renal = test system: CAKI-1 renal
CCRF-CEM leukemia = test system: CCRF-CEM leukemia
COLO 205 colon = test system: COLO 205 colon
DU-145 prostate = test system: DU-145 prostate
EKVX NSCLC = test system: EKVX NSCLC
HCC-2998 colon = test system: HCC-2998 colon
HCT-116 colon = test system: HCT-116 colon
HCT-15 colon = test system: HCT-15 colon
HL-60(TB) leukemia = test system: HL-60(TB) leukemia
HOP-62 NSCLC = test system: HOP-62 NSCLC
HT29 colon = test system: HT29 colon
IGROV1 ovarian = test system: IGROV1 ovarian
K-562 leukemia = test system: K-562 leukemia
KM12 colon = test system: KM12 colon
LOX IMVI melanoma = test system: LOX IMVI melanoma
M14 melanoma = test system: M14 melanoma
MALME-3M melanoma = test system: MALME-3M melanoma
MCF7 breast = test system: MCF7 breast
MDA-MB-231 breast = test system: MDA-MB-231 breast
MDA-MB-435 = test system: MDA-MB-435
MOLT-4 leukemia = test system: MOLT-4 leukemia
NCI-H226 lung = test system: NCI-H226 lung
NCI-H23 lung = test system: NCI-H23 lung
NCI-H460 lung = test system: NCI-H460 lung
NCI-H522 lung = test system: NCI-H522 lung
OVCAR-3 ovarian = test system: OVCAR-3 ovarian
OVCAR-4 ovarian = test system: OVCAR-4 ovarian
OVCAR-8 ovarian = test system: OVCAR-8 ovarian
PC-3 prostate = test system: PC-3 prostate
RPMI-8226 leukemia = test system: RPMI-8226 leukemia
RXF 393 renal = test system: RXF 393 renal
SF-268 CNS = test system: SF-268 CNS
SF-295 CNS = test system: SF-295 CNS
SF-539 CNS = test system: SF-539 CNS
SK-MEL-2 melanoma = test system: SK-MEL-2 melanoma
SK-MEL-28 melanoma = test system: SK-MEL-28 melanoma
SK-MEL-5 melanoma = test system: SK-MEL-5 melanoma
SK-OV-3 ovarian = test system: SK-OV-3 ovarian
SN12C renal = test system: SN12C renal
SNB-19 CNS = test system: SNB-19 CNS
SNB-75 CNS = test system: SNB-75 CNS
SR leukemia = test system: SR leukemia
SW-620 colon = test system: SW-620 colon
U251 CNS = test system: U251 CNS
UACC-257 melanoma = test system: UACC-257 melanoma
UACC-62 melanoma = test system: UACC-62 melanoma
UO-31 renal = test system: UO-31 renal
BT-549 breast = test system: BT-549 breast
HOP-92 NSCLC = test system: HOP-92 NSCLC
OVCAR-5 ovarian = test system: OVCAR-5 ovarian

c1ccc(Cn2c(-c3ccc(OC[C@H](C4CCNCC4)n4c(-c5ccccc5)nc5ccccc54)cc3)nc3ccccc32)cc1
GI50 (A498 renal): 1480 nM
TGI (A498 renal): 2.83 µM
GI50 (HS 578T breast): 2000 nM
TGI (HS 578T breast): 4.79 µM
GI50 (NCI/ADR-RES ovarian): 7.74 µM
TGI (NCI/ADR-RES ovarian): > 80.7 µM
GI50 (T-47D breast): 2190 nM
TGI (T-47D breast): 4.72 µM
GI50 (TK-10 renal): 1630 nM
TGI (TK-10 renal): 3.08 µM

NCCN1CC2CCC(CC2)C1
TGI (786-0 renal): > 10 µM
TGI (A498 renal): > 10 µM
TGI (A549 NSCLC): > 10 µM
TGI (ACHN renal): > 10 µM
TGI (CAKI-1 renal): > 10 µM
TGI (CCRF-CEM leukemia): > 10 µM
TGI (COLO 205 colon): > 10 µM
TGI (DU-145 prostate): > 10 µM
TGI (EKVX NSCLC): > 10 µM
TGI (HCC-2998 colon): > 10 µM
TGI (HCT-116 colon): > 10 µM
TGI (HCT-15 colon): > 10 µM
TGI (HL-60(TB) leukemia): > 10 µM
TGI (HOP-62 NSCLC): > 10 µM
TGI (HS 578T breast): > 10 µM
TGI (HT29 colon): > 10 µM
TGI (IGROV1 ovarian): > 10 µM
TGI (K-562 leukemia): > 10 µM
TGI (KM12 colon): > 10 µM
TGI (LOX IMVI melanoma): > 10 µM
TGI (M14 melanoma): > 10 µM
TGI (MALME-3M melanoma): > 10 µM
TGI (MCF7 breast): > 10 µM
TGI (MDA-MB-231 breast): > 10 µM
TGI (MDA-MB-435): > 10 µM
TGI (MOLT-4 leukemia): > 10 µM
TGI (NCI-H226 lung): > 10 µM
TGI (NCI-H23 lung): > 10 µM
TGI (NCI-H460 lung): > 10 µM
TGI (NCI-H522 lung): > 10 µM
TGI (NCI/ADR-RES ovarian): > 10 µM
TGI (OVCAR-3 ovarian): > 10 µM
TGI (OVCAR-4 ovarian): > 10 µM
TGI (OVCAR-8 ovarian): > 10 µM
TGI (PC-3 prostate): > 10 µM
TGI (RPMI-8226 leukemia): > 10 µM
TGI (RXF 393 renal): > 10 µM
TGI (SF-268 CNS): > 10 µM
TGI (SF-295 CNS): > 10 µM
TGI (SF-539 CNS): > 10 µM
TGI (SK-MEL-2 melanoma): > 10 µM
TGI (SK-MEL-28 melanoma): > 10 µM
TGI (SK-MEL-5 melanoma): > 10 µM
TGI (SK-OV-3 ovarian): > 10 µM
TGI (SN12C renal): > 10 µM
TGI (SNB-19 CNS): > 10 µM
TGI (SNB-75 CNS): > 10 µM
TGI (SR leukemia): > 10 µM
TGI (SW-620 colon): > 10 µM
TGI (T-47D breast): > 10 µM
TGI (TK-10 renal): > 10 µM
TGI (U251 CNS): > 10 µM
TGI (UACC-257 melanoma): > 10 µM
TGI (UACC-62 melanoma): > 10 µM
TGI (UO-31 renal): > 10 µM

CC1(C)CC(=O)c2c(nc(SSc3nc4c(c(-c5ccccc5)c3C#N)C(=O)CC(C)(C)C4)c(C#N)c2-c2ccccc2)C1
TGI (786-0 renal): > 10 µM
TGI (A498 renal): > 10 µM
TGI (A549 NSCLC): > 10 µM
TGI (ACHN renal): > 10 µM
TGI (BT-549 breast): > 10 µM
TGI (CAKI-1 renal): > 10 µM
TGI (CCRF-CEM leukemia): > 10 µM
TGI (COLO 205 colon): > 10 µM
TGI (DU-145 prostate): > 10 µM
TGI (EKVX NSCLC): > 10 µM
TGI (HCC-2998 colon): > 10 µM
TGI (HCT-116 colon): > 10 µM
TGI (HCT-15 colon): > 10 µM
TGI (HL-60(TB) leukemia): > 10 µM
TGI (HOP-62 NSCLC): > 10 µM
TGI (HOP-92 NSCLC): > 10 µM
TGI (HS 578T breast): > 10 µM
TGI (HT29 colon): > 10 µM
TGI (IGROV1 ovarian): > 10 µM
TGI (K-562 leukemia): > 10 µM
TGI (KM12 colon): > 10 µM
TGI (LOX IMVI melanoma): > 10 µM
TGI (M14 melanoma): > 10 µM
TGI (MALME-3M melanoma): > 10 µM
TGI (MCF7 breast): > 10 µM
TGI (MOLT-4 leukemia): > 10 µM
TGI (NCI-H226 lung): > 10 µM
TGI (NCI-H23 lung): > 10 µM
TGI (NCI-H460 lung): > 10 µM
TGI (NCI-H522 lung): > 10 µM
TGI (NCI/ADR-RES ovarian): > 10 µM
TGI (OVCAR-3 ovarian): > 10 µM
TGI (OVCAR-4 ovarian): > 10 µM
TGI (OVCAR-5 ovarian): > 10 µM
TGI (OVCAR-8 ovarian): > 10 µM
TGI (PC-3 prostate): > 10 µM
TGI (RPMI-8226 leukemia): > 10 µM
TGI (RXF 393 renal): > 10 µM
TGI (SF-268 CNS): > 10 µM
TGI (SF-295 CNS): > 10 µM
TGI (SF-539 CNS): > 10 µM
TGI (SK-MEL-2 melanoma): > 10 µM
TGI (SK-MEL-28 melanoma): > 10 µM
TGI (SK-MEL-5 melanoma): > 10 µM
TGI (SK-OV-3 ovarian): > 10 µM
TGI (SN12C renal): > 10 µM
TGI (SNB-19 CNS): > 10 µM
TGI (SNB-75 CNS): > 10 µM
TGI (SW-620 colon): > 10 µM
TGI (T-47D breast): > 10 µM
TGI (TK-10 renal): > 10 µM
TGI (U251 CNS): > 10 µM
TGI (UACC-257 melanoma): > 10 µM
TGI (UO-31 renal): > 10 µM

COC(=O)C1=CC(NC(=O)OCc2ccccc2)C(C(=O)c2ccccc2)C[C@@H]1Sc1ccccc1 (stereo not given in full)
TGI (CCRF-CEM leukemia): 4.99 µM
TGI (HL-60(TB) leukemia): 3.03 µM
TGI (K-562 leukemia): 7.72 µM

C=CCN1C(=O)CS/C1=N/NC(=O)C(O)(c1ccccc1)c1ccccc1
TGI (786-0 renal): > 10 µM
TGI (A549 NSCLC): > 10 µM
TGI (ACHN renal): > 10 µM
TGI (CAKI-1 renal): > 10 µM
TGI (CCRF-CEM leukemia): > 10 µM
TGI (COLO 205 colon): > 10 µM
TGI (HL-60(TB) leukemia): > 10 µM
TGI (HOP-62 NSCLC): > 10 µM
TGI (HOP-92 NSCLC): > 10 µM
TGI (IGROV1 ovarian): > 10 µM
TGI (K-562 leukemia): > 10 µM
TGI (M14 melanoma): > 10 µM
TGI (MALME-3M melanoma): > 10 µM
TGI (MCF7 breast): > 10 µM
TGI (MDA-MB-435): > 10 µM
TGI (MOLT-4 leukemia): > 10 µM
TGI (NCI-H23 lung): > 10 µM
TGI (NCI-H460 lung): > 10 µM
TGI (NCI/ADR-RES ovarian): > 10 µM
TGI (OVCAR-4 ovarian): > 10 µM
TGI (RPMI-8226 leukemia): > 10 µM
TGI (RXF 393 renal): > 10 µM
TGI (SF-268 CNS): > 10 µM
TGI (SK-MEL-2 melanoma): > 10 µM
TGI (SK-MEL-28 melanoma): > 10 µM
TGI (SK-MEL-5 melanoma): > 10 µM
TGI (SK-OV-3 ovarian): > 10 µM
TGI (SNB-75 CNS): > 10 µM
TGI (SR leukemia): > 10 µM
TGI (SW-620 colon): > 10 µM
TGI (T-47D breast): > 10 µM
TGI (U251 CNS): > 10 µM
TGI (UACC-62 melanoma): > 10 µM
